Converted amounts (≈) assume the structure as drawn.
Experiments:
[1] = tested on: K. pneumoniae H154300688 (KP9); test: MIC broth microdilution; assay type: cell-based, Klebsiella pneumoniae; details: Klebsiella pneumoniae
Procedure, shortened: (§1)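 CLSI M07-A10 broth microdilution against planktonic cells, two-fold serial compound dilutions spanning 0.39-200 μM final, DMSO at most 2% final. Cation-adjusted Müller-Hinton broth, 37° C, ambient air; MIC taken as lowest concentration inhibiting growth after 20-24 hour incubation.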

[2] = tested on: K. pneumoniae H154600588 (KP8); test: MIC broth microdilution; assay type: cell-based, Klebsiella pneumoniae; details: Klebsiella pneumoniae
Procedure, shortened: as §1

[3] = tested on: K. pneumoniae H154680676 (KP5); test: MIC broth microdilution; assay type: cell-based, Klebsiella pneumoniae; details: Klebsiella pneumoniae
Procedure, shortened: as §1

[4] = tested on: K. pneumoniae H151440671 (KP10); test: MIC broth microdilution; assay type: cell-based, Klebsiella pneumoniae; details: Klebsiella pneumoniae
Procedure, shortened: as §1

[5] = tested on: K. pneumoniae NCTC 13438 (KP1); test: MIC broth microdilution; assay type: cell-based, Klebsiella pneumoniae; details: Klebsiella pneumoniae, NCTC13438
Procedure, shortened: as §1

[6] = tested on: K. pneumoniae ATCC 700603 (KP3); test: MIC broth microdilution; assay type: cell-based, Klebsiella pneumoniae; details: Klebsiella pneumoniae, ATCC700603
Procedure, shortened: as §1

[7] = tested on: K. pneumoniae H154020667 (KP6); test: MIC broth microdilution; assay type: cell-based, Klebsiella pneumoniae; details: Klebsiella pneumoniae
Procedure, shortened: as §1

[8] = tested on: K. pneumoniae H154640784 (KP7); test: MIC broth microdilution; assay type: cell-based, Klebsiella pneumoniae; details: Klebsiella pneumoniae
Procedure, shortened: as §1

[9] = tested on: Klebsiella pneumoniae ATCC 51504 (KP4); test: MIC broth microdilution; assay type: cell-based; details: ATCC51504
Procedure, shortened: (§2)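 CLSI M07 broth microdilution; cation-adjusted MH broth; 2-fold series, final 0.39-200 μM, ≤2% DMSO final; 37° C, ambient atmosphere, 20-24 h. MIC = lowest conc. with no growth.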

[10] = tested on: Staphylococcus aureus ATCC 35556 (SA); test: MIC broth microdilution; assay type: cell-based; details: ATCC35556
Procedure, shortened: as §2

[11] = tested on: Acinetobacter baumannii ATCC 17978 (AB); test: MIC broth microdilution; assay type: cell-based; details: ATCC17978
Procedure, shortened: as §2

[12] = tested on: Klebsiella pneumoniae ATCC 10031 (KP2); test: MIC broth microdilution; assay type: cell-based; details: ATCC10031
Procedure, shortened: as §1

[13] = tested on: Escherichia coli K12 (EC); test: MIC broth microdilution; assay type: cell-based
Procedure, shortened: as §2

[14] = tested on: Pseudomonas aeruginosa ATCC 33359 (PA); test: MIC broth microdilution; assay type: cell-based; details: ATCC33359
Procedure, shortened: as §2

[15] = tested on: E. coli NCTC 13441 (UPEC); test: MIC broth microdilution; assay type: cell-based, Escherichia coli; details: Escherichia coli, NCTC13441
Procedure, shortened: as §2

[16] = tested on: human hepatocarcinoma cell line ATCC HB-8065 (HepG2); test: Human cell viability (CellTiter-Glo); assay type: cell-based; details: Homo sapiens; HepG2 cells, 24 h incubation, CellTiter-Glo luminescence, 0.2-100 μM; read-out: IC50 values against the HepG2 cell line
Procedure, shortened: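 HepG2 cells were seeded at 20,000 cells/well in MEM with 10% FBS and, after 24 h, exposed for 24 h at 37° C. to two-fold dilutions (final 0.2-100 μM) in MEM with 1% FBS and 1% DMSO. Viability was read by CellTiter-Glo luminescence, with IC50 from a 4-parameter logistic fit.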

Cc1cc(-c2[nH]c(N)nc2-c2ccc3c(c2)N(S(C)(=O)=O)CCO3)ccn1 [Example 55, 5-(2-Methylpyridin-4-yl)-4-(4-(methylsulfonyl)-3,4-dihydro-2H-benzo[b][1,4]oxazin-6-yl)-1H-imidazol-2-amine]
MIC [1]: 1 to 10 µM (≈ 0.385 to 3.85 µg/mL)
MIC [2]: 1 to 10 µM (≈ 0.385 to 3.85 µg/mL)
MIC [3]: 1 to 10 µM (≈ 0.385 to 3.85 µg/mL)
MIC [4]: 1 to 10 µM (≈ 0.385 to 3.85 µg/mL)
MIC [5]: 10 to 100 µM (≈ 3.85 to 38.5 µg/mL)
MIC [6]: 1 to 10 µM (≈ 0.385 to 3.85 µg/mL)
MIC [7]: 1 to 10 µM (≈ 0.385 to 3.85 µg/mL)
MIC [8]: 1 to 10 µM (≈ 0.385 to 3.85 µg/mL)
MIC [9]: 1 to 10 µM (≈ 0.385 to 3.85 µg/mL)
MIC [10]: > 100 µM
MIC [11]: > 100 µM
MIC [12]: ≤ 1 µM
MIC [13]: 1 to 10 µM (≈ 0.385 to 3.85 µg/mL)
MIC [14]: > 100 µM
MIC [15]: 1 to 10 µM (≈ 0.385 to 3.85 µg/mL)
IC50 [16]: > 100 µM

CCN1CCOc2ccc(-c3nc(N)[nH]c3-c3ccnc(C)c3)cc21 [Example 57, 4-(4-Ethyl-3,4-dihydro-2H-benzo[b][1,4]oxazin-6-yl)-5-(2-methylpyridin-4-yl)-1H-imidazol-2-amine]
MIC [1]: 1 to 10 µM (≈ 0.335 to 3.35 µg/mL)
MIC [2]: 1 to 10 µM (≈ 0.335 to 3.35 µg/mL)
MIC [3]: ≤ 1 µM
MIC [4]: ≤ 1 µM
MIC [5]: 1 to 10 µM (≈ 0.335 to 3.35 µg/mL)
MIC [6]: 1 to 10 µM (≈ 0.335 to 3.35 µg/mL)
MIC [7]: ≤ 1 µM
MIC [8]: 1 to 10 µM (≈ 0.335 to 3.35 µg/mL)
MIC [9]: ≤ 1 µM
MIC [10]: > 100 µM
MIC [11]: > 100 µM
MIC [12]: ≤ 1 µM
MIC [13]: ≤ 1 µM
MIC [14]: > 100 µM
MIC [15]: 1 to 10 µM (≈ 0.335 to 3.35 µg/mL)
IC50 [16]: > 100 µM

Cc1cc(-c2[nH]c(N)nc2-c2ccc3c(c2)N(C2CC2)CCO3)ccn1 [Example 65, 4-(4-Cyclopropyl-3,4-dihydro-2H-benzo[b][1,4]oxazin-6-yl)-5-(2-methylpyridin-4-yl)-1H-imidazol-2-amine]
MIC [1]: ≤ 1 µM
MIC [2]: 1 to 10 µM (≈ 0.347 to 3.47 µg/mL)
MIC [3]: ≤ 1 µM
MIC [4]: ≤ 1 µM
MIC [5]: 1 to 10 µM (≈ 0.347 to 3.47 µg/mL)
MIC [6]: 1 to 10 µM (≈ 0.347 to 3.47 µg/mL)
MIC [7]: ≤ 1 µM
MIC [8]: 1 to 10 µM (≈ 0.347 to 3.47 µg/mL)
MIC [9]: ≤ 1 µM
MIC [10]: > 100 µM
MIC [11]: > 100 µM
MIC [12]: ≤ 1 µM
MIC [13]: ≤ 1 µM
MIC [14]: > 100 µM
MIC [15]: 1 to 10 µM (≈ 0.347 to 3.47 µg/mL)
IC50 [16]: > 100 µM

Cc1cc(-c2[nH]c(N)nc2-c2cc3c(cc2F)OCCN3)ccn1 [Example 52, 4-(7-Fluoro-3,4-dihydro-2H-benzo[b][1,4]oxazin-6-yl)-5-(2-methylpyridin-4-yl)-1H-imidazol-2-amine]
MIC [1]: 1 to 10 µM (≈ 0.325 to 3.25 µg/mL)
MIC [2]: 1 to 10 µM (≈ 0.325 to 3.25 µg/mL)
MIC [3]: ≤ 1 µM
MIC [4]: ≤ 1 µM
MIC [5]: 1 to 10 µM (≈ 0.325 to 3.25 µg/mL)
MIC [6]: 1 to 10 µM (≈ 0.325 to 3.25 µg/mL)
MIC [7]: ≤ 1 µM
MIC [8]: 1 to 10 µM (≈ 0.325 to 3.25 µg/mL)
MIC [9]: ≤ 1 µM
MIC [10]: > 100 µM
MIC [11]: > 100 µM
MIC [12]: ≤ 1 µM
MIC [13]: ≤ 1 µM
MIC [14]: > 100 µM
MIC [15]: ≤ 1 µM
IC50 [16]: > 100 µM

Cc1cc(-c2[nH]c(N)nc2-c2ccc3c(c2)N(C(C)C)CCO3)ccn1 [Example 93, 4-(4-isopropyl-3,4-dihydro-2H-benzo[b][1,4]oxazin-6-yl)-5-(2-methylpyridin-4-yl)-1H-imidazol-2-amine]
MIC [1]: 1 to 10 µM (≈ 0.349 to 3.49 µg/mL)
MIC [2]: 1 to 10 µM (≈ 0.349 to 3.49 µg/mL)
MIC [3]: ≤ 1 µM
MIC [4]: ≤ 1 µM
MIC [5]: 1 to 10 µM (≈ 0.349 to 3.49 µg/mL)
MIC [6]: 1 to 10 µM (≈ 0.349 to 3.49 µg/mL)
MIC [7]: ≤ 1 µM
MIC [8]: 1 to 10 µM (≈ 0.349 to 3.49 µg/mL)
MIC [9]: ≤ 1 µM
MIC [10]: > 100 µM
MIC [11]: > 100 µM
MIC [12]: ≤ 1 µM
MIC [13]: ≤ 1 µM
MIC [14]: > 100 µM
MIC [15]: ≤ 1 µM
IC50 [16]: 25 to 100 µM

COCCN1CCOc2ccc(-c3nc(N)[nH]c3-c3ccnc(C)c3)cc21 [Example 64, 4-(4-(2-Methoxyethyl)-3,4-dihydro-2H-benzo[b][1,4]oxazin-6-yl)-5-(2-methylpyridin-4-yl)-1H-imidazol-2-amine]
MIC [1]: 1 to 10 µM (≈ 0.365 to 3.65 µg/mL)
MIC [2]: 1 to 10 µM (≈ 0.365 to 3.65 µg/mL)
MIC [3]: 1 to 10 µM (≈ 0.365 to 3.65 µg/mL)
MIC [4]: 1 to 10 µM (≈ 0.365 to 3.65 µg/mL)
MIC [5]: 1 to 10 µM (≈ 0.365 to 3.65 µg/mL)
MIC [6]: 1 to 10 µM (≈ 0.365 to 3.65 µg/mL)
MIC [7]: 1 to 10 µM (≈ 0.365 to 3.65 µg/mL)
MIC [8]: 1 to 10 µM (≈ 0.365 to 3.65 µg/mL)
MIC [9]: 1 to 10 µM (≈ 0.365 to 3.65 µg/mL)
MIC [10]: > 100 µM
MIC [11]: > 100 µM
MIC [12]: ≤ 1 µM
MIC [13]: 1 to 10 µM (≈ 0.365 to 3.65 µg/mL)
MIC [14]: > 100 µM
MIC [15]: ≤ 1 µM
IC50 [16]: > 100 µM

Cc1cc(-c2[nH]c(N)nc2-c2ccc3c(c2)N(C(=O)CN)CCO3)ccn1 [Example 62, 2-Amino-1-(6-(2-amino-5-(2-methylpyridin-4-yl)-1H-imidazol-4-yl)-2,3-dihydro-4H-benzo[b][1,4]oxazin-4-yl)ethan-1-one]
MIC [1]: 1 to 10 µM (≈ 0.364 to 3.64 µg/mL)
MIC [2]: 10 to 100 µM (≈ 3.64 to 36.4 µg/mL)
MIC [3]: 1 to 10 µM (≈ 0.364 to 3.64 µg/mL)
MIC [4]: 1 to 10 µM (≈ 0.364 to 3.64 µg/mL)
MIC [5]: 1 to 10 µM (≈ 0.364 to 3.64 µg/mL)
MIC [6]: 1 to 10 µM (≈ 0.364 to 3.64 µg/mL)
MIC [7]: 1 to 10 µM (≈ 0.364 to 3.64 µg/mL)
MIC [8]: 1 to 10 µM (≈ 0.364 to 3.64 µg/mL)
MIC [9]: 1 to 10 µM (≈ 0.364 to 3.64 µg/mL)
MIC [10]: > 100 µM
MIC [11]: > 100 µM
MIC [12]: ≤ 1 µM
MIC [13]: 1 to 10 µM (≈ 0.364 to 3.64 µg/mL)
MIC [14]: > 100 µM
MIC [15]: ≤ 1 µM
IC50 [16]: > 100 µM

Nc1nc(-c2ccc3c(c2)NCCO3)c(-c2ccnc(Cl)c2)[nH]1 [Example 45, 5-(2-Chloropyridin-4-yl)-4-(3,4-dihydro-2H-benzo[b][1,4]oxazin-6-yl)-1H-imidazol-2-amine]
MIC [1]: 1 to 10 µM (≈ 0.328 to 3.28 µg/mL)
MIC [2]: 10 to 100 µM (≈ 3.28 to 32.8 µg/mL)
MIC [3]: 1 to 10 µM (≈ 0.328 to 3.28 µg/mL)
MIC [4]: 1 to 10 µM (≈ 0.328 to 3.28 µg/mL)
MIC [5]: 1 to 10 µM (≈ 0.328 to 3.28 µg/mL)
MIC [6]: 1 to 10 µM (≈ 0.328 to 3.28 µg/mL)
MIC [7]: 1 to 10 µM (≈ 0.328 to 3.28 µg/mL)
MIC [8]: 1 to 10 µM (≈ 0.328 to 3.28 µg/mL)
MIC [9]: 1 to 10 µM (≈ 0.328 to 3.28 µg/mL)
MIC [10]: > 100 µM
MIC [11]: > 100 µM
MIC [12]: ≤ 1 µM
MIC [13]: ≤ 1 µM
MIC [14]: > 100 µM
MIC [15]: ≤ 1 µM
IC50 [16]: > 100 µM

Reference: US11345694B2, “Antibacterial compounds” (DISCUVA LTD., priority 2017, dated 2022)
